Data as given in PubChem BioAssay (NCI).
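Growth conditions: 96-well plates. Treatment: test compound, 48 hours, 5 concentrations. Analysis: linear interpolation between bracketing concentrations; unreached endpoints set to highest concentration. GI50: concentration for 50% inhibition of growth. Definition used: TGI = concentration required for complete inhibition of growth.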

Tests used:
Experiment in all cases: NCI-60 cell line screen, 48 h
CAKI-1 renal = system: CAKI-1 renal
SN12C renal = system: SN12C renal
HCC-2998 colon = system: HCC-2998 colon
UACC-62 melanoma = system: UACC-62 melanoma
NCI-H23 lung = system: NCI-H23 lung
MDA-MB-231 breast = system: MDA-MB-231 breast
HT29 colon = system: HT29 colon
RXF 393 renal = system: RXF 393 renal
IGROV1 ovarian = system: IGROV1 ovarian
TK-10 renal = system: TK-10 renal
OVCAR-5 ovarian = system: OVCAR-5 ovarian
SK-MEL-5 melanoma = system: SK-MEL-5 melanoma
SR leukemia = system: SR leukemia
UACC-257 melanoma = system: UACC-257 melanoma
PC-3 prostate = system: PC-3 prostate
HOP-62 NSCLC = system: HOP-62 NSCLC
SK-MEL-28 melanoma = system: SK-MEL-28 melanoma
MALME-3M melanoma = system: MALME-3M melanoma
NCI-H522 lung = system: NCI-H522 lung
HL-60(TB) leukemia = system: HL-60(TB) leukemia
SK-OV-3 ovarian = system: SK-OV-3 ovarian
T-47D breast = system: T-47D breast
K-562 leukemia = system: K-562 leukemia
CCRF-CEM leukemia = system: CCRF-CEM leukemia
SNB-19 CNS = system: SNB-19 CNS
MDA-MB-435 = system: MDA-MB-435
A498 renal = system: A498 renal
HS 578T breast = system: HS 578T breast
RPMI-8226 leukemia = system: RPMI-8226 leukemia
SNB-75 CNS = system: SNB-75 CNS
OVCAR-4 ovarian = system: OVCAR-4 ovarian
SF-295 CNS = system: SF-295 CNS
NCI-H226 lung = system: NCI-H226 lung
LOX IMVI melanoma = system: LOX IMVI melanoma
SF-539 CNS = system: SF-539 CNS
A549 NSCLC = system: A549 NSCLC
SF-268 CNS = system: SF-268 CNS
KM12 colon = system: KM12 colon
UO-31 renal = system: UO-31 renal
COLO 205 colon = system: COLO 205 colon
EKVX NSCLC = system: EKVX NSCLC
ACHN renal = system: ACHN renal
SK-MEL-2 melanoma = system: SK-MEL-2 melanoma
OVCAR-8 ovarian = system: OVCAR-8 ovarian
DU-145 prostate = system: DU-145 prostate
MOLT-4 leukemia = system: MOLT-4 leukemia
HOP-92 NSCLC = system: HOP-92 NSCLC

In the case of `O=C(/C=C/c1ccccc1Cl)c1nc2ccccc2n1Cc1ccc(F)cc1`, the GI50 (CAKI-1 renal) was 3.47 µM, the TGI (CAKI-1 renal) was > 100 µM and the GI50 (SN12C renal) was 20.1 µM. The TGI (SN12C renal) was > 100 µM, the GI50 (HCC-2998 colon) was 3.16 µM and the TGI (HCC-2998 colon) was 55.8 µM. It also gave a GI50 (UACC-62 melanoma) of 3.42 µM, a TGI (UACC-62 melanoma) of 17.9 µM and a GI50 (NCI-H23 lung) of 4.25 µM. The TGI (NCI-H23 lung) was > 100 µM, the GI50 (MDA-MB-231 breast) was 2.59 µM and the TGI (MDA-MB-231 breast) was 6.68 µM. The GI50 (HT29 colon) was 3.64 µM, the TGI (HT29 colon) was > 100 µM and the GI50 (RXF 393 renal) was 2.06 µM. The TGI (RXF 393 renal) was 5.35 µM, the GI50 (IGROV1 ovarian) was 3.33 µM and the TGI (IGROV1 ovarian) was > 100 µM. For the same compound, the GI50 (TK-10 renal) was 6.22 µM, the TGI (TK-10 renal) was > 100 µM and the GI50 (OVCAR-5 ovarian) was 3.76 µM. The TGI (OVCAR-5 ovarian) was 73.1 µM, the GI50 (SK-MEL-5 melanoma) was 5.23 µM and the TGI (SK-MEL-5 melanoma) was > 100 µM. The GI50 (SR leukemia) was 2.87 µM, the TGI (SR leukemia) was > 100 µM and the GI50 (UACC-257 melanoma) was 8.88 µM. The TGI (UACC-257 melanoma) was > 100 µM, the GI50 (PC-3 prostate) was 4.45 µM and the TGI (PC-3 prostate) was > 100 µM. For the same compound, the GI50 (HOP-62 NSCLC) was 5.03 µM, the TGI (HOP-62 NSCLC) was 41.9 µM and the GI50 (SK-MEL-28 melanoma) was 2.75 µM. For the same compound, the TGI (SK-MEL-28 melanoma) was 7.72 µM, the GI50 (MALME-3M melanoma) was 8.22 µM and the TGI (MALME-3M melanoma) was 70.2 µM. For the same compound, the GI50 (NCI-H522 lung) was 4.49 µM, the TGI (NCI-H522 lung) was > 100 µM and the GI50 (HL-60(TB) leukemia) was 2.51 µM. For the same compound, the TGI (HL-60(TB) leukemia) was > 100 µM, the GI50 (SK-OV-3 ovarian) was 32.5 µM and the TGI (SK-OV-3 ovarian) was > 100 µM. The GI50 (T-47D breast) was 3.44 µM, the TGI (T-47D breast) was > 100 µM and the GI50 (K-562 leukemia) was 3.3 µM. For the same compound, the TGI (K-562 leukemia) was > 100 µM, the GI50 (CCRF-CEM leukemia) was 2.45 µM and the TGI (CCRF-CEM leukemia) was > 100 µM. It also gave a GI50 (SNB-19 CNS) of 3.99 µM, a TGI (SNB-19 CNS) of 70 µM and a GI50 (MDA-MB-435) of 2.37 µM. For the same compound, the TGI (MDA-MB-435) was 5.92 µM, the GI50 (A498 renal) was 61.8 µM and the TGI (A498 renal) was > 100 µM. The GI50 (HS 578T breast) was 4.51 µM, the TGI (HS 578T breast) was 58.6 µM and the GI50 (RPMI-8226 leukemia) was 2.97 µM. The TGI (RPMI-8226 leukemia) was > 100 µM, the GI50 (SNB-75 CNS) was 3.3 µM and the TGI (SNB-75 CNS) was > 100 µM. For the same compound, the GI50 (OVCAR-4 ovarian) was 23 µM, the TGI (OVCAR-4 ovarian) was > 100 µM and the GI50 (SF-295 CNS) was 5.01 µM. For the same compound, the TGI (SF-295 CNS) was 25.1 µM, the GI50 (NCI-H226 lung) was 25.4 µM and the TGI (NCI-H226 lung) was > 100 µM. The GI50 (LOX IMVI melanoma) was 1.65 µM, the TGI (LOX IMVI melanoma) was 3.23 µM and the GI50 (SF-539 CNS) was 2.33 µM. For the same compound, the TGI (SF-539 CNS) was 5.67 µM, the GI50 (A549 NSCLC) was 8.06 µM and the TGI (A549 NSCLC) was > 100 µM. The GI50 (SF-268 CNS) was 8.56 µM, the TGI (SF-268 CNS) was > 100 µM and the GI50 (KM12 colon) was 3.34 µM. The TGI (KM12 colon) was > 100 µM, the GI50 (UO-31 renal) was 2.58 µM and the TGI (UO-31 renal) was 11.2 µM. For the same compound, the GI50 (COLO 205 colon) was 4.01 µM, the TGI (COLO 205 colon) was > 100 µM and the GI50 (EKVX NSCLC) was 6.44 µM. The TGI (EKVX NSCLC) was > 100 µM, the GI50 (ACHN renal) was 5.23 µM and the TGI (ACHN renal) was > 100 µM. The GI50 (SK-MEL-2 melanoma) was 13.4 µM, the TGI (SK-MEL-2 melanoma) was > 100 µM and the GI50 (OVCAR-8 ovarian) was 3.25 µM. For the same compound, the TGI (OVCAR-8 ovarian) was > 100 µM, the GI50 (DU-145 prostate) was 4.61 µM and the TGI (DU-145 prostate) was > 100 µM. For the same compound, the GI50 (MOLT-4 leukemia) was 3.04 µM, the TGI (MOLT-4 leukemia) was > 100 µM and the GI50 (HOP-92 NSCLC) was 16.4 µM. For the same compound, the TGI (HOP-92 NSCLC) was 62.8 µM.
